Here are results for one sequence from patent US5962415A, “Compositions comprising a peptide inhibitor of nuclear protein translocation and an immunosuppressant and methods of use thereof” (Bristol-Myers Squibb Co., priority 1998, dated 1999).

In experiment [1] the test system is 70Z/3 murine leukemia pre-B cells. The experiment is described as follows: LPS-stimulated surface antigen expression (κ Ig light chain, IL-2 receptor, CD45) in 70Z/3 cells. In kind it is cell-based. Particulars: dose-response data, FIG. 1B. As for the experimental part: Expression of κ Ig, CD45, CD40, and the interleukin-2 receptor was assayed using standard enzyme-linked immunosorbent assays ("ELISAs") (see, Coligan et al. (eds.) (1991) Current Protocols in Immunology, Wiley & Sons, p. 2.10 or by FACS staining to measure cell-surface markers as described in Raff (1970) Immunology 19:637). Antibodies form cell surface markers were obtained from Pharmingen Co.
The effect of the SV40MEM polypeptide was compared with two additional polypeptides, […] (SEQ ID NO:2) (the "HIV-1MEM" polypeptide), which is composed of the membrane translocation domain of FGF flanked by the NLS from the HIV-1 matrix protein and […] (SEQ ID NO:3) (the "C-MYCMEM" polypeptide), which contains the NLS from the human c-myc oncoprotein (Chelsky et al. (1989), supra, and Dang et al. (1988), supra) using murine 70Z/3 pre-B cells.
Murine 70Z/3 cells (ATCC TlD-158) are a model cell line for analyzing the effects of compounds on B-cell differentiation. In response to S. typhosa LPS (Difco) or γ-interferon, these cells differentiate from surface κ immunoglobulin negative to κ Ig positive.
[…] of: (1) a peptide containing only the FGF signal sequence AAVALLPAVLLALLAP (SEQ ID NO:4) (the "MEM" peptide); (2) a polypeptide having the FGF signal sequence and the NLS of NF-κB p50 on the carboxy terminus of the signal sequence, namely, the NF-κBMEM polypeptide; (3) the SV40MEM polypeptide comprised of L-amino acids; or (4) the SV40MEM polypeptide comprised of D-amino acids. The cells were then incubated with LPS as described in Example 2 and assayed for expression of κ light chain expression.

The test system of experiment [2] is BALB/c mice immunized with KLH. The experiment is described as follows: Anti-hemocyanin (KLH) response in mice. Conditions: 5 mg/kg day 0 plus 5 doses every other day, serum day 14, FIG. 12. In kind it is in vivo. As for the experimental part:
Female BALB/c mice (8 weeks of age) were immunized by intraperitoneal injection of 25 μg keyhole limpet (Megathura crenulata) hemocyanin ("KLH") (Pacific Bio-Marine Laboratories, Venice, Calif.) without adjuvant on day 0. Mice were divided into groups of five and inhibitory peptides C-MYCMEM and BMS-205820 ([…] (SEQ ID NO:24)), which is identical to the SV40MEM polypeptide with the exception that the polypeptide lacks the C-terminal cysteine, were administered on day 0 at 5 mg/kg, followed by 5 subsequent doses of the same concentration every other day. Control mice were treated with a single 200-μg dose of Chimeric L6 antibody ("Chi L6"). After 14 days, the mice were bled from the orbital sinus and the level of anti-KLH antibodies were measured in the serum by ELISA as described in Example 11.

The next experiment relates to CD14. The experiment is described as follows: LPS binding to CD14 (plate assay with soluble CD14 Ig). Particulars: E. coli AO16 LPS, 2 hours at 4° C., FIG. 14. As for the experimental part:
96-well plates were coated with goat-anti human Ig, soluble CD-1 4 Ig was added, and the plates were incubated overnight at 4° C. The BMS polypeptide, the C-MYCMEM polypeptide, an SV40 NLS polypeptide containing a single SV40 large T-antigen NLS, a c-myc NLS without a translocation sequence (AKRVKL (SEQ ID NO:6)), a control non-NLS polypeptide, 377G, or PBS, were added to the plates and the plates were incubated for 5 min. E. coli AO16 LPS was then added to the plates and the plates were incubated for 2 hours at 4° C. The plates were washed and LPS was detected using 0.5 μg/ml mouse anti-E. coli LPS, followed by goat anti-mouse horseradish peroxidase.

The test system of experiment [3] is Splenic T-cells from BALB/c mice. The experiment is described as follows: Mouse splenic T-cell proliferation ([3H]-thymidine). In kind it is cell-based. Particulars: 0.5 or 2.0 μM, FIG. 16. As for the experimental part: Splenic T-cells from BALB/c mice were isolated by glass wool chromatography and treated with either 0.5 or 2.0 μM peptide in 96 well plates for 2 hours followed by activation with either anti-CD3 alone ([…]), PMA alone (1 ng/ml), anti-CD3 plus anti-CD28 ([…] each) or anti-CD28 plus PMA ([…] and 1 ng/ml, respectively). Plates were coated with antibody 24 hours prior to activation. Proliferation was determined after 72 hours by pulsing for 8 hours with [^3 H]-thymidine, and determining radioactivity incorporated into DNA.

Take “AKRVKLAAVALLPAVLLALLAKRVKLC [C-MYCMEM, contains the NLS from the human c-myc oncoprotein]”: the “efficacy at inhibiting κ Ig light chain production (comparison of three polypeptides)” value in experiment [1] is on record as “approximately equally efficacious”. Further, in experiment [1], the “potency at inhibiting κ Ig light chain production compared with SV40MEM” value is recorded as “not as potent”. Further, the “specific anti-KLH response” value in experiment [2] is “inhibited”. Also, the “binding of LPS to CD14” value in the experiment with CD14 is recorded as “block it from binding CD14”. The T cell proliferation entry in experiment [3] (stimulated with PMA + anti-CD28, 2 hours pretreatment) is given as “inhibited”; in experiment [3] (stimulated with anti-CD3 + anti-CD28, 2 hours pretreatment), “augmentation of proliferation”.
